Test results as given in the NIST ThermoML archive (doi:10.1021/je0501639).

Assays:
[1] = refractive index (Na D-line) (dimensionless); xn = mol fraction of the nth substance listed; conditions: 100.8 kPa, Liquid, Standard Abbe refractometry
[2] = xn = mol fraction of the nth substance listed; conditions: 100.8 kPa, Liquid; for viscosity: Falling or rolling sphere viscometry

CC(C)(C)O [2-methylpropan-2-ol] + CCO
Conditions | mass density, 298.15 K [kg/m3] | mass density, 308.15 K [kg/m3] | mass density, 318.15 K [kg/m3] | refractive index, 298.15 K | refractive index, 308.15 K | refractive index, 318.15 K | viscosity, 298.15 K [mPa·s] | viscosity, 308.15 K [mPa·s] | viscosity, 318.15 K [mPa·s]
[1], x2 = 0 | – | – | – | 1.38481 | 1.3796 | 1.37416 | – | – | –
[1], x2 = 0.05 | – | – | – | 1.38427 | 1.37911 | 1.37378 | – | – | –
[1], x2 = 0.1 | – | – | – | 1.38367 | 1.37861 | 1.37336 | – | – | –
[1], x2 = 0.15 | – | – | – | 1.38294 | 1.37797 | 1.37284 | – | – | –
[1], x2 = 0.2 | – | – | – | 1.38213 | 1.37726 | 1.37224 | – | – | –
[1], x2 = 0.25 | – | – | – | 1.38123 | 1.37648 | 1.3715 | – | – | –
[1], x2 = 0.3 | – | – | – | 1.38027 | 1.37558 | 1.37072 | – | – | –
[1], x2 = 0.35 | – | – | – | 1.37923 | 1.37463 | 1.36984 | – | – | –
[1], x2 = 0.4 | – | – | – | 1.37813 | 1.3736 | 1.36891 | – | – | –
[1], x2 = 0.45 | – | – | – | 1.37698 | 1.37253 | 1.36791 | – | – | –
[1], x2 = 0.5 | – | – | – | 1.37576 | 1.37136 | 1.36682 | – | – | –
[1], x2 = 0.55 | – | – | – | 1.37449 | 1.37013 | 1.36567 | – | – | –
[1], x2 = 0.6 | – | – | – | 1.37312 | 1.36883 | 1.36442 | – | – | –
[1], x2 = 0.65 | – | – | – | 1.37171 | 1.36741 | 1.36304 | – | – | –
[1], x2 = 0.7 | – | – | – | 1.37018 | 1.36593 | 1.36162 | – | – | –
[1], x2 = 0.75 | – | – | – | 1.36859 | 1.36438 | 1.36007 | – | – | –
[1], x2 = 0.8 | – | – | – | 1.3669 | 1.36271 | 1.35848 | – | – | –
[1], x2 = 0.85 | – | – | – | 1.36515 | 1.36096 | 1.35677 | – | – | –
[1], x2 = 0.9 | – | – | – | 1.36332 | 1.35914 | 1.35498 | – | – | –
[1], x2 = 0.95 | – | – | – | 1.36137 | 1.3572 | 1.35308 | – | – | –
[2], x2 = 0 | 780.99 | 770.7 | 760.05 | – | – | – | 4.43 | 2.622 | 1.708
[2], x2 = 0.05 | 782.27 | 772.23 | 761.94 | – | – | – | 4.295 | 2.587 | 1.73
[2], x2 = 0.1 | 782.82 | 772.95 | 762.82 | – | – | – | 4.135 | 2.536 | 1.719
[2], x2 = 0.15 | 783.19 | 773.6 | 763.53 | – | – | – | 3.949 | 2.463 | 1.698
[2], x2 = 0.2 | 783.47 | 774.03 | 764.14 | – | – | – | 3.752 | 2.374 | 1.662
[2], x2 = 0.25 | 783.65 | 774.34 | 764.59 | – | – | – | 3.552 | 2.277 | 1.618
[2], x2 = 0.3 | 783.81 | 774.62 | 765.01 | – | – | – | 3.348 | 2.18 | 1.568
[2], x2 = 0.35 | 783.94 | 774.87 | 765.41 | – | – | – | 3.134 | 2.082 | 1.515
[2], x2 = 0.4 | 784.03 | 775.07 | 765.74 | – | – | – | 2.905 | 1.978 | 1.456
[2], x2 = 0.45 | 784.11 | 775.29 | 766.04 | – | – | – | 2.668 | 1.877 | 1.395
[2], x2 = 0.5 | 784.18 | 775.45 | 766.31 | – | – | – | 2.462 | 1.772 | 1.332
[2], x2 = 0.55 | 784.29 | 775.61 | 766.58 | – | – | – | 2.272 | 1.675 | 1.272
[2], x2 = 0.6 | 784.32 | 775.68 | 766.72 | – | – | – | 2.097 | 1.575 | 1.213
[2], x2 = 0.65 | 784.4 | 775.77 | 766.87 | – | – | – | 1.934 | 1.475 | 1.153
[2], x2 = 0.7 | 784.42 | 775.85 | 767.01 | – | – | – | 1.782 | 1.38 | 1.092
[2], x2 = 0.75 | 784.49 | 775.93 | 767.15 | – | – | – | 1.644 | 1.291 | 1.032
[2], x2 = 0.8 | 784.62 | 776.07 | 767.27 | – | – | – | 1.518 | 1.206 | 0.974
[2], x2 = 0.85 | 784.75 | 776.18 | 767.41 | – | – | – | 1.4 | 1.126 | 0.919
[2], x2 = 0.9 | 784.86 | 776.28 | 767.51 | – | – | – | 1.285 | 1.048 | 0.862
[2], x2 = 0.95 | 785.02 | 776.4 | 767.6 | – | – | – | 1.188 | 0.976 | 0.805
